{"source": "patent US20190269705A1", "about": "“METHODS AND MATERIALS FOR TREATING GRAFT VERSUS HOST DISEASE” (Regents of the University of Minnesota, priority 2017, published 2019)", "key": {"CD19+ B cells": {"test_system": "CD19+ B cells", "experiment": "In vivo CAR T cells treated ex vivo", "parameters": "species or system mouse", "conditions": "CAR-T cells treated with CB839 during in vitro transduction", "source_text": "CAR T cells were produced as described elsewhere (see, e.g., Li et al., “Gammaretroviral Production and T Cell Transduction to Genetically Retarget Primary T Cells Against Cancer.” In: Lugli E, ed. T-Cell Differentiation: Methods and Protocols. New York, N.Y.: Springer New York; 2017:111-118). Briefly, spleen T cells were isolated from Thy1.1 B6 mice at day 0. Cells were then activated with mouse CD3/CD28 Dynabeads and 30 IU/ml recombinant human IL2. At day 1 and 2, cells were spin transduced twice with retrovirus carrying CARs. At day 3, cells were fed with fresh medium. At day 4, transduced T cells were harvested, beads removed, evaluated for viability, transduction efficiency, immune phenotype and ready for use. For CB839 treated CAR T cells, CB839 were added to the culture at day 1, 2 and 3 at 1 μM. For in vivo study, C57B6 mice (n=25) were i.p. injected with cyclophosphamide (CTX) at 300 mg/kg. Mice were i.v. injected with 3×10^5 CAR T cells one day after CTX injection. Peripheral blood (PB) samples were collected 1, 2, 4 and 6 weeks after CAR T injection, stained with B cell and T cell antibodies and subjected to flow cytometry. […]\nCAR T cells were produced as previously described (Li et al., 2017). […] At day 4, transduced T cells were harvested, beads removed, evaluated for viability, transduction efficiency, immune phenotype and ready for use. […]"}, "Th17 cells": {"test_system": "Th17 cells", "experiment": "RNA-Seq and gene set enrichment analysis, Th17", "assay_type": "cell-based, mouse", "protocol": "ATAC-Seq: Crude nuclei pellets were isolated as described elsewhere (see, e.g., Buenrostro et al., 2013 Nat Meth. 10(12):1213-1218) with modifications. Briefly, naïve CD4 T cells were skewed to Th1 and Th17 subsets in vitro with vehicle or in the presence of 500 nM CB839. At Day 5, T cells were re-isolated for CD4+ cells using Miltenyi CD4+ negative selection kit (Cat #: 130-104-454). 1×10^5 cells were removed for nuclei extraction in ATAC-Seq lysing buffer. Cells were exposed to Tn5+ adaptor proteins from Nextera DNA for 30 min at 37° C. and immediately placed on ice. Transposed eluate was amplified via PCR using Nextera DNA preparation kit (Illumina, Cat #: FC-121-1030), NEBNext High-fidelity 2× PCR mix (New England Labs, Cat #: M0541), and multiplexed (Illumina, Cat #: FC-121-1011). Samples were purified using Zymo DNA cleanup kit (Cat #: D4011). QC of samples was run on bioanalyzer before being sent for sequencing. RNA-Seq: Th1 and Th17 cells skewed with or without CB839 were isolated as previously described and total RNA extracted (Qiagen RNEasy Mini kit, Cat #: 74104). RNA was sent to VANTAGE core at Vanderbilt University and sequenced on HiSeq 2500. n=3 for each sample was analyzed. Samples were analyzed using the R program DESeq2. GSEA was performed using MSigDB.\nTh1 and Th17 cells were skewed with or without CB839 over 5 days and total RNA extracted for RNAseq (Cat #: 74104). RNA was sent to VANderbilt Technologies for Advanced GEnomics (VANTAGE) core at Vanderbilt University. Libraries were prepared using 50 ng of total RNA using the NEBNext Ultra RNA Library Kit for Illumina (Cat #E7530) and sequenced on HiSeq3000 at 75 bp paired-end. Each sample was analyzed in triplicate. Sequencing reads were aligned against the Mouse GENCODE genome, Version M14 (Jan. 2017 freeze, GRCm38, Ensembl 89) using the Spliced Transcripts Alignment to a Reference (STAR) software (ref: 26187010 and 23104886). Reads were preprocessed and index using SAMtools (ref: 19505943). Mapped reads were assigned to gene features and quantified using featureCounts (ref: 24227677). Normalization and differential expression was performed using DESeq2 (Love et al., 2014). Skewed lymphocytes with and without CB839 were compared in both Th1 and Th17 groups. […] The top 200 most differentially expressed genes were used for unsupervised hierarchical cluster analysis and visualized using heatmap representations."}, "[1]": {"conditions": "Th17 Cells: Decreased Pathways, HALLMARK_CHOLESTEROL_HOMEOSTASIS"}, "[2]": {"conditions": "Th17 Cells: Decreased Pathways, HALLMARK_E2F_TARGETS"}, "[3]": {"conditions": "Th17 Cells: Decreased Pathways, HALLMARK_G2M_CHECKPOINT"}, "[4]": {"conditions": "Th17 Cells: Decreased Pathways, HALLMARK_GLYCOLYSIS"}, "[5]": {"conditions": "Th17 Cells: Decreased Pathways, HALLMARK_IL2_STAT5_SIGNALING"}, "[6]": {"conditions": "Th17 Cells: Decreased Pathways, HALLMARK_MTORC1_SIGNALING"}, "[7]": {"conditions": "Th17 Cells: Decreased Pathways, HALLMARK_MYC_TARGETS_V1"}, "[8]": {"conditions": "Th17 Cells: Decreased Pathways, HALLMARK_MYC_TARGETS_V2"}, "[9]": {"conditions": "Th17 Cells: Decreased Pathways, HALLMARK_TNFA_SIGNALING_VIA_NFKB"}, "[10]": {"conditions": "Th17 Cells: Decreased Pathways, HALLMARK_UNFOLDED_PROTEIN_RESPONSE"}, "[11]": {"conditions": "Th17 Cells: Increased Pathways, HALLMARK_APICAL_JUNCTION"}, "[12]": {"conditions": "Th17 Cells: Increased Pathways, HALLMARK_COMPLEMENT"}, "[13]": {"conditions": "Th17 Cells: Increased Pathways, HALLMARK_EPITHELIAL_MESENCHYMAL_TRANSITION"}, "[14]": {"conditions": "Th17 Cells: Increased Pathways, HALLMARK_HYPOXIA"}, "[15]": {"conditions": "Th17 Cells: Increased Pathways, HALLMARK_INFLAMMATORY_RESPONSE"}, "[16]": {"conditions": "Th17 Cells: Increased Pathways, HALLMARK_INTERFERON_GAMMA_RESPONSE"}, "[17]": {"conditions": "Th17 Cells: Increased Pathways, HALLMARK_MYOGENESIS"}, "[18]": {"conditions": "Th17 Cells: Increased Pathways, HALLMARK_P53_PATHWAY"}, "[19]": {"conditions": "Th17 Cells: Increased Pathways, HALLMARK_TNFA_SIGNALING_VIA_NFKB"}, "[20]": {"conditions": "Th17 Cells: Increased Pathways, HALLMARK_XENOBIOTIC_METABOLISM"}}, "note": "“Also recorded” adds a separate entry of the source."}
{"smiles": "O=C(Cc1cccc(OC(F)(F)F)c1)Nc1ccc(CCCCc2nnc(NC(=O)Cc3ccccn3)s2)nn1", "note": "[CB839]", "values": [{"measurement": "CAR-T cell accumulation / persistence in vivo", "setting": "CD19+ B cells", "value": "accumulated in vivo to a greater extent; also recorded: enhances T cell persistence"}, {"measurement": "elimination of CD19+ targets in vivo", "setting": "CD19+ B cells", "value": "equivalently capable; also recorded: equally capable of eliminating CD19+ targets in vivo"}, {"measurement": "compensation by GLS2 at the RNA level", "setting": "Th17 cells; Th17, CB839-treated", "value": "No compensation by GLS2 at the RNA level"}, {"measurement": "direction of the 200 genes with the most altered expression", "setting": "Th17 cells; Th17, CB839 vs vehicle", "value": "more of the most changed genes were downregulated; also recorded: more of these genes were downregulated"}, {"measurement": "gene set enrichment: cell cycle, mTORC1, Myc, IL2 signaling pathways", "setting": "Th17 cells; Th17, CB839 vs vehicle", "value": "downregulated"}, {"measurement": "# Genes in Overlap (k)", "setting": "Th17 cells; [1]", "value": 25}, {"measurement": "k/K", "setting": "Th17 cells; [1]", "value": 0.3378}, {"measurement": "# Genes in Overlap (k)", "setting": "Th17 cells; [2]", "value": 107}, {"measurement": "k/K", "setting": "Th17 cells; [2]", "value": 0.535}, {"measurement": "# Genes in Overlap (k)", "setting": "Th17 cells; [3]", "value": 94}, {"measurement": "k/K", "setting": "Th17 cells; [3]", "value": 0.47}, {"measurement": "# Genes in Overlap (k)", "setting": "Th17 cells; [4]", "value": 31}, {"measurement": "k/K", "setting": "Th17 cells; [4]", "value": 0.155}, {"measurement": "# Genes in Overlap (k)", "setting": "Th17 cells; [5]", "value": 39}, {"measurement": "k/K", "setting": "Th17 cells; [5]", "value": 0.195}, {"measurement": "# Genes in Overlap (k)", "setting": "Th17 cells; [6]", "value": 70}, {"measurement": "k/K", "setting": "Th17 cells; [6]", "value": 0.35}, {"measurement": "# Genes in Overlap (k)", "setting": "Th17 cells; [7]", "value": 75}, {"measurement": "k/K", "setting": "Th17 cells; [7]", "value": 0.375}, {"measurement": "# Genes in Overlap (k)", "setting": "Th17 cells; [8]", "value": 31}, {"measurement": "k/K", "setting": "Th17 cells; [8]", "value": 0.5345}, {"measurement": "# Genes in Overlap (k)", "setting": "Th17 cells; [9]", "value": 34}, {"measurement": "k/K", "setting": "Th17 cells; [9]", "value": 0.17}, {"measurement": "# Genes in Overlap (k)", "setting": "Th17 cells; [10]", "value": 29}, {"measurement": "k/K", "setting": "Th17 cells; [10]", "value": 0.2566}, {"measurement": "# Genes in Overlap (k)", "setting": "Th17 cells; [11]", "value": 19}, {"measurement": "k/K", "setting": "Th17 cells; [11]", "value": 0.095}, {"measurement": "# Genes in Overlap (k)", "setting": "Th17 cells; [12]", "value": 17}, {"measurement": "k/K", "setting": "Th17 cells; [12]", "value": 0.085}, {"measurement": "# Genes in Overlap (k)", "setting": "Th17 cells; [13]", "value": 16}, {"measurement": "k/K", "setting": "Th17 cells; [13]", "value": 0.08}, {"measurement": "# Genes in Overlap (k)", "setting": "Th17 cells; [14]", "value": 15}, {"measurement": "k/K", "setting": "Th17 cells; [14]", "value": 0.075}, {"measurement": "# Genes in Overlap (k)", "setting": "Th17 cells; [15]", "value": 16}, {"measurement": "k/K", "setting": "Th17 cells; [15]", "value": 0.08}, {"measurement": "# Genes in Overlap (k)", "setting": "Th17 cells; [16]", "value": 25}, {"measurement": "k/K", "setting": "Th17 cells; [16]", "value": 0.125}, {"measurement": "# Genes in Overlap (k)", "setting": "Th17 cells; [17]", "value": 18}, {"measurement": "k/K", "setting": "Th17 cells; [17]", "value": 0.09}, {"measurement": "# Genes in Overlap (k)", "setting": "Th17 cells; [18]", "value": 19}, {"measurement": "k/K", "setting": "Th17 cells; [18]", "value": 0.095}, {"measurement": "# Genes in Overlap (k)", "setting": "Th17 cells; [19]", "value": 17}, {"measurement": "k/K", "setting": "Th17 cells; [19]", "value": 0.085}, {"measurement": "# Genes in Overlap (k)", "setting": "Th17 cells; [20]", "value": 17}, {"measurement": "k/K", "setting": "Th17 cells; [20]", "value": 0.085}]}
